Biological target: Vasopressin V1a receptor (Homo sapiens, UniProt P37288)
Experiment: Vasopressin V1A Receptor Antagonist Assay: The purpose of this assay was to determine the inhibitory effect of synthesized compounds on the Vasopressin V1a receptor. The assay as performed in Chinese Hamster Ovary (CHO) cells expressing the human Arginine Vasopressin Receptor 1a (AVPR1a). Arginine Vasopressin (AVP) evokes an increase in intracellular calcium in CHO-AVPR1a cells which is measured in a fluorescence assay on the […] using calcium sensitive dyes. Test compounds were assessed for their ability to affect the magnitude of the response to AVP, with antagonists showing a concentration-dependent reduction in the AVP-mediated fluorescence. Compounds were tested in duplicate in a 10-point, 1:3 dilution series starting at a nominal concentration of 3 μM in the assay.CHO-AVPR1a cells were maintained in routine culture in T175 Flasks at 37° C., 5% CO2. The growth medium consists of Ham's F12 media supplemented with 10% v/v fetal bovine serum, 1× non-essential amino acids, and 0.4 mg/ml Geneticin G418.
Type: cell-based

Vasopressin V1a receptor, sequence (P37288 whole entry): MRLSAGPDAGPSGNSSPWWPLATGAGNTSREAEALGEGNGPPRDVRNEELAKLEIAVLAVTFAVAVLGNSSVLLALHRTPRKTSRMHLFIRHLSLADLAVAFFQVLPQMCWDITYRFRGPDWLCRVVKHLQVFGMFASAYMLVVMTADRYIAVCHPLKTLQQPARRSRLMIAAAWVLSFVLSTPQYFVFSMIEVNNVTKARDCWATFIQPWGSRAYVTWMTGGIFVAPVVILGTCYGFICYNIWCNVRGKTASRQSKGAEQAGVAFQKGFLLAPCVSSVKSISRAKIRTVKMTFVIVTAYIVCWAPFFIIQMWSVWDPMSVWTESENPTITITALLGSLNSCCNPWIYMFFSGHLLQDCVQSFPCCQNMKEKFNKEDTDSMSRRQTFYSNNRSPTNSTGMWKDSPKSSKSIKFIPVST

CN(C)C(=O)N1Cc2cc(Cl)ccc2-n2c(nnc2C2CC3(C2)CN(c2ccc(F)cn2)C3)C1
IC50: < 100 nM

O=C(C1CC1)N1CC2(CC(c3nnc4n3-c3ccc(Cl)cc3CN(C3CC3)C4)C2)C1
IC50: < 100 nM

— ChEMBL document CHEMBL5728840, “Vasopressin receptor antagonists and products and methods related thereto” (2021)
